Structures can show the parent of a compound that is named as a salt.
Columns and labels:
[1] = test system: K562 (chronic myelogenous leukemia; leukemia cell line +ve for Bcr-Abl); assay: Cancer cell assay, K562 tumor cells, viable cells after 96 hours; format: cell-based; settings: 96 hours after treatment, called IC50
Protocol: (§1) The effect of the compounds of the invention on tumor cells was determined by the assay described by Latham et al., Oncogene 12:827-837 (1996). Tumor cells K562 (chronic myelogenous leukemia; leukemia cell line +ve for Bcr-Abl) or DU145 (prostate cancer) were plated in 12-well dishes at a cell density of 2.5×10^4 cells well. The plated cells were treated 24 hours later with a compound of the invention dissolved in DMSO at multiple concentrations ranging from 0.01 μM to 100 μM. The plates were examined 96 hours later under an inverted microscope, Olympus CK-2 using a 10× objective, and compound activity was noted by physical observation. When necessary, the total number of viable cells was determined by trypsinizing the wells and counting the number of viable cells, as determined by trypan blue exclusion, using a hemacytometer.

DU145 (prostate cancer) = assay: Cancer cell assay, DU145 tumor cells, viable cells after 96 hours; format: cell-based; settings: Homo sapiens, DU-145, 96 hours after treatment, called IC50
Protocol: as §1

Row | Compound | melting point [°C] | IC50 ([1]; Homo sapiens) [µM] | IC50 (DU145 (prostate cancer)) [µM] | IC50 [1] [µM]
1 | COC(=O)c1sc2c(c[n+](C)c3cc(OC)c(OC)cc23)c1N (as salt: iodide) [Example 30, 3-amino-7,8-dimethoxy-2-(methoxycarbonyl)-5-methylthieno[3,2-c]quinolin-5-ium iodide] | 249 to 251 |  |  | 
2 | COC(=O)c1sc2c(cnc3cc(O)c(OC)cc32)c1N [Example 9, Methyl 3-amino-7-hydroxy-8-methoxythieno[3,2-c]quinoline-2-carboxylate] | 244 to 246 | 1 to 10 | > 10 | 
3 | COC(=O)c1sc2c(cnc3cc(OCc4ccccc4)c(OC)cc32)c1N [Example 4, Methyl 3-amino-7-benzyloxy-8-methoxythieno[3,2-c]quinolone-2-carboxylate] | 221 to 223 | > 10 | > 10 | 
4 | Nc1c(C(=O)c2ccc(F)cc2)sc2c1cnc1cc(F)c(F)cc12 [Example 39, (3-Amino-7,8-difluorothieno[3,2-c]quinolin-2-yl)(4-fluorophenyl)methanone] | > 320 | 75 | 75 | 
5 | COC(=O)c1sc2c(cnc3cc(OCCCN4CCOCC4)c(OC)cc32)c1N [Example 11, Methyl 3-amino-8-methoxy-7-(3-morpholinopropoxy)thieno[3,2-c]quinoline-2-carboxylate] | 117 to 120 | 1 to 10 | 1 to 10 | 
6 | COc1cc2ncc3c(N)c(-c4nnn[nH]4)sc3c2cc1OC [Example 33, 7,8-dimethoxy-2-(1H-tetrazol-5-yl)thieno[3,2-e]quinolin-3-amine] | 252 to 255 | 25 to 50 | 50 to 100 | 
7 | Nc1c(C(=O)c2ccc(F)cc2)sc2c1cnc1ccc(F)cc12 [Example 37, (3-Amino-8-fluorothieno[3,2-c]quinolin-2-yl)(4-fluorophenyl)methanone] | 276 to 278 | 0.15 | 5 | 
8 | CCOC(=O)c1sc2c(cnc3cc(OC)c(OC)cc32)c1N [Example 2, Ethyl 3-amino-7,8-dimethoxythieno[3,2-c]quinolone-2-carboxylate] | 215 to 218 | 0.5 to 1 | > 1 | 
9 | COc1ccc(C(=O)c2sc3c(cnc4cc(F)c(F)cc43)c2N)cc1 [Example 40, (3-Amino-7,8-difluorothieno[3,2-c]quinolin-2-yl)(4-methoxyphenyl)methanone] | 258 to 260 | 75 | 75 | 
10 | COC(=O)c1sc2c(cnc3cc(OC)c(OC)cc32)c1NC(=O)c1ccccc1 [Example 19, Methyl 3-benzamido-7,8-dimethoxythieno[3,2-c]quinoline-2-carboxylate] | 205 to 208 | 0.1 to 0.25 | 0.25 to 0.5 | 
11 | COC(=O)c1sc2c(cnc3cc(OC)c(OC)cc32)c1NC(=O)c1ccc(OC)cc1 [Example 16, Methyl 7,8-dimethoxy-3-(4-methoxybenzamido)thieno[3,2-c]quinoline-2-carboxylate] | 255 to 258 | < 1 | < 1 | 
12 | COC(=O)c1sc2c(cnc3ccc(F)cc32)c1N [Example 34, Methyl 3-amino-8-fluorothieno[3,2-c]quinoline-2-carboxylate] | 270 to 272 | 10 | 10 | 
13 | COC(=O)c1sc2c(cnc3cc(OC)c(OC)cc32)c1NC(=O)c1ccccc1F [Example 17, Methyl 3-(2-fluorobenzamido)-7,8-dimethoxythieno[3,2-c]quinoline-2-carboxylate] | 237 to 240 | 0.1 to 0.25 | 0.5 to 1 | 
14 | COc1cc2ncc3c(N)c(C(=O)c4ccc(F)cc4)sc3c2cc1OC [Example 3, (3-Amino-7,8-dimethoxythieno[3,2-c]quinolin-2-yl)(4-fluorophenyl)methanone] | 286 to 288 | > 10 | > 10 | 
15 | COC(=O)c1sc2c(cnc3cc(OC)c(OC)cc32)c1/N=C/N(C)C [Example 32, (E)-methyl 3-(((dimethylamino)methylene)amino)-7,8-dimethoxythieno[3,2-c]quinoline-2-carboxylate] | 173 to 175 | 10 to 25 | 10 to 25 | 
16 | COC(=O)c1sc2c(cnc3cc(OC)c(OC)cc32)c1NC(=O)C(F)(F)F [Example 23, Methyl 7,8-dimethoxy-3-(2,2,2-trifluoroacetamido)thieno[3,2-c]quinoline-2-carboxylate] | 224 to 230 | 0.2 | 0.75 | 
17 | COC(=O)C[n+]1cc2c(N)c(C(=O)OC)sc2c2cc(OC)c(OC)cc21 [Example 31, 3-amino-7,8-dimethoxy-5-(2-methoxy-2-oxoethyl)-2-(methoxycarbonyl)thieno[3,2-c]quinolin-5-ium bromide] |  | 50 to 100 | > 100 | 
18 | COc1cc2ncc3c(N)c(C(=O)C(F)(F)F)sc3c2cc1OC [Example 5, 1-(3-Amino-7,8-dimethoxythieno[3,2-c]quinolin-2-yl)-2,2,2-trifluoroethanone] | 230 to 234 | 1 to 10 | > 10 | 
19 | COC(=O)c1sc2c(cnc3cc(OC)c(OC)cc32)c1NC(=O)C(=O)N1CCN(c2ccncc2)CC1 [Example 27, Methyl 7,8-dimethoxy-3-{2-oxo-2-[4-(pyridin-4-yl)piperazin-1-yl]acetamido}thieno[3,2-c]quinoline-2-carboxylate] | 245 to 248 | 1 to 10 | 1 to 10 | 
20 | COC(=O)c1sc2c(cnc3cc(OCCCN4CCCCC4)c(OC)cc32)c1N [Example 12, Methyl 3-amino-8-methoxy-7-[3-(piperidin-1-yl)propoxy]thieno[3,2-c]quinoline-2-carboxylate] | 127 to 130 | 1 to 5 | 1 to 5 | 
21 | COC(=O)c1sc2c(cnc3cc(OC)c(OCc4ccccc4)cc32)c1N [Example 7, Methyl 3-amino-8-benzyloxy-7-methoxythieno[3,2-c]quinoline-2-carboxylate] | 272 to 274 | > 10 | > 10 | 
22 | COC(=O)c1sc2c(cnc3cc(OCCN4CCOCC4)c(OC)cc32)c1N [Example 14, Methyl 3-amino-8-methoxy-7-(2-morpholinoethoxy)thieno[3,2-c]quinoline-2-carboxylate] | 158 to 160 | 10 to 25 | 10 to 25 | 
23 | COC(=O)c1sc2c(cnc3cc(OC)c(OC)cc32)c1NC(=O)C(=O)N1CCN(C)CC1 [Example 25, Methyl 7,8-dimethoxy-3-[2-(4-methylpiperazin-1-yl)-2-oxoacetamido]thieno[3,2-c]quinoline-2-carboxylate] |  | 1 to 10 | 1 to 10 | 
24 | COC(=O)c1sc2c(c[n+](C)c3cc(OC)c(OC)cc23)c1N [Example 30, 3-amino-7,8-dimethoxy-2-(methoxycarbonyl)-5-methylthieno[3,2-c]quinolin-5-ium iodide] |  | 5 to 10 | > 10 | 
25 | Methyl 7,8-dimethoxy-3-(2-aminobenzamido)thieno[3,2-e]quinoline-2-carboxylate [Example 21] |  |  |  | < 1

Reference: patent US20150065499A1, “3-AMINOTHIENO[3,2-c]QUINOLINE DERIVATIVES, METHODS OF PREPARATION AND USES” (TEMPLE UNIVERSITY - OF THE COMMONWEALTH SYSTEM OF HIGHER …, priority 2012, published 2015)
